Results taken from ChEMBL document CHEMBL5247655, “Simplified Derivatives of Tetrandrine as Potent and Specific P-gp Inhibitors to Reverse Multidrug Resistance in Cancer Chemotherapy” (J Med Chem, 2023).
≈ marks a conversion by molar mass, not a printed value.

Assays:
ECa-109 cell line [1] = experiment: Reversal of VCR -resistance in human Eca-109 cells assessed as cell viability at 5 uM incubated for 48 hrs by CCK-8 method (reference value: 6830.0+/-537.0 nM); type: functional, cell-based; conditions: ECa-109, 48 h
ECa-109 cell line [2] = experiment: Reversal of vincristine-resistance in human Eca-109 cells assessed as fold reversal by measuring cell viability at 5 uM incubated for 48 hrs by CCK-8 method relative to vincristine alone; type: functional
ECa-109 cell line [3] = experiment: Cytotoxicity against vincristine resistant human Eca-109 cells incubated for 48 hrs by CCK-8 method relative to control; type: functional; design: concentration or dose not given beside the values
ECa-109 cell line [4] = experiment: Reversal of vincristine-resistance in human Eca-109 cells assessed as fold reversal by measuring cell viability incubated for 48 hrs by CCK-8 method relative to vincristine alone; type: functional
ECa-109 cell line [5] = experiment: Induction of apoptosis in vincristine resistant human Eca-109 cells assessed as late apoptotic cells at 5 uM incubated for 24 hrs by AnnexinV-FITC/PI staining based flow cytometric analysis (reference value: 7.19%); type: functional
ECa-109 cell line [6] = experiment: Induction of apoptosis in vincristine resistant human Eca-109 cells assessed as late apoptotic cells at 5 uM incubated for 24 hrs in presence of vincristine by AnnexinV-FITC/PI staining based flow cytometric analysis (reference value: 6.01%); type: functional
ECa-109 cell line [7] = experiment: Induction of apoptosis in vincristine resistant human Eca-109 cells assessed as early apoptotic cells at 5 uM incubated for 24 hrs by AnnexinV-FITC/PI staining based flow cytometric analysis (reference value: 2.30%); type: functional
ECa-109 cell line [8] = experiment: Induction of apoptosis in vincristine resistant human Eca-109 cells assessed as necrotic cells at 5 uM incubated for 24 hrs by AnnexinV-FITC/PI staining based flow cytometric analysis (reference value: 0.25%); type: functional
ECa-109 cell line [9] = experiment: Induction of apoptosis in vincristine resistant human Eca-109 cells assessed as viable cells at 5 uM incubated for 24 hrs in presence of vincristine by AnnexinV-FITC/PI staining based flow cytometric analysis (reference value: 89.2%); type: functional; conditions: read-out: Activity
ECa-109 cell line [10] = experiment: Induction of apoptosis in vincristine resistant human Eca-109 cells assessed as necrotic cells at 5 uM incubated for 24 hrs in presence of vincristine by AnnexinV-FITC/PI staining based flow cytometric analysis (reference value: 0.35%); type: functional
ECa-109 cell line [11] = experiment: Induction of apoptosis in vincristine resistant human Eca-109 cells assessed as early apoptotic cells at 5 uM incubated for 24 hrs in presence of vincristine by AnnexinV-FITC/PI staining based flow cytometric analysis (reference value: 4.43%); type: functional
ECa-109 cell line [12] = experiment: Induction of apoptosis in vincristine resistant human Eca-109 cells assessed as viable cells at 5 uM incubated for 24 hrs by AnnexinV-FITC/PI staining based flow cytometric analysis (reference value: 90.3%); type: functional; conditions: read-out: Activity
[13] = target: ATP-dependent translocase ABCB1 (Homo sapiens, UniProt P08183); experiment: Binding affinity to P-gp in vincristine resistant human Eca-109 cells assessed as stabilization of protein at 67 degree C at 100 uM incubated for 30 mins by thermal shift assay; type: cell-based; conditions: eca-109, 0.5 h
[14] = Toxicity in nude mouse assessed as change in body weight at 0.2 mg/kg administered every 2 days for 21 days; type: organism-based; conditions: in vivo, 48 h, time 2 day
[15] = Solubility of the compound in water at 25 degree C by shake flask method based UV-spectrophotometric method; type: physicochemical

ATP-dependent translocase ABCB1, sequence (P08183 whole entry): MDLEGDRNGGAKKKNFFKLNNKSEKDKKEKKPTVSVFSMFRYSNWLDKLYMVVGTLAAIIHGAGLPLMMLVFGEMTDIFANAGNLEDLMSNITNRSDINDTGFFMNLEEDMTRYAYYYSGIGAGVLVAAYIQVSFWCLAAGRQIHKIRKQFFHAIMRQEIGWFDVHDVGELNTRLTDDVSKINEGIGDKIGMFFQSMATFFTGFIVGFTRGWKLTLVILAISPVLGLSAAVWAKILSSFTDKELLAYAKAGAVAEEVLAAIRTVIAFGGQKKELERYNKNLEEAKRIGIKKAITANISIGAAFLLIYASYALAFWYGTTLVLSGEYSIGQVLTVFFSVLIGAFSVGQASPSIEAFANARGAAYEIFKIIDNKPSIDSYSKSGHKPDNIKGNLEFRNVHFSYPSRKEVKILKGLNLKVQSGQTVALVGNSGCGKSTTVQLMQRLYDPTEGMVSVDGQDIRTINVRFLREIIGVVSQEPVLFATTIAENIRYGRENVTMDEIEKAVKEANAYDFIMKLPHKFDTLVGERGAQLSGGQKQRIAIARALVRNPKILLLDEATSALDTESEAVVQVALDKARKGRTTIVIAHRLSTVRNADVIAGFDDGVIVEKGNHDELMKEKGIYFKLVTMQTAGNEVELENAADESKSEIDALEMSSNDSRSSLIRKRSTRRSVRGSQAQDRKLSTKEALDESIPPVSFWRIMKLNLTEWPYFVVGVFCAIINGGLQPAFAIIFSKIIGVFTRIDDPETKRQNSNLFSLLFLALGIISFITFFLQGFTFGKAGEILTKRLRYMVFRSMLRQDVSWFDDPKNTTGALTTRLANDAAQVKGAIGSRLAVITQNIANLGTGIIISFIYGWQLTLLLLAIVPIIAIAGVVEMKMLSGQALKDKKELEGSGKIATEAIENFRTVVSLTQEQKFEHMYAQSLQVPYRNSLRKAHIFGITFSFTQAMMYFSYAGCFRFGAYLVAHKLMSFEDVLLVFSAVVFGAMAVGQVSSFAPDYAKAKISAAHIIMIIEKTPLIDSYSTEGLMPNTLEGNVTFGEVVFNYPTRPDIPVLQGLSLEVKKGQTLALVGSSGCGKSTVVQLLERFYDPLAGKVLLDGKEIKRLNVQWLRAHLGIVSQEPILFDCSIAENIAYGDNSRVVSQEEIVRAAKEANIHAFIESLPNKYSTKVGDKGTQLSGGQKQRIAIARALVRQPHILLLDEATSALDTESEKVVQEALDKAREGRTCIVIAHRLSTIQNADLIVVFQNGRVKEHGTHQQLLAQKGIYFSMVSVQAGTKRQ

Compound | Activity (ECa-109 cell line [3]) [%] | fold change (FC) (ECa-109 cell line [4]) | other results
COc1ccc2cc1Oc1ccc(cc1)C[C@H]1c3c(cc4c(c3Oc3cc5c(cc3OC)CCN(C)[C@@H]5C2)OCO4)CCN1C [CEPHARANTHINE] | – | – | IC50 (ECa-109 cell line [1]): 437 nM; fold change (FC) (ECa-109 cell line [2]): 15.6
COc1ccc(CC2c3cc(OC)c(OC)cc3CCN2C)cc1O (configuration not stated) | 903 | 2.5 | –
COc1cc2c(cc1OC)C(Cc1ccc(O)cc1)N(C)CC2 (configuration not stated) | 98.1 | 2.8 | –
COc1cc2c(cc1OC)C(Cc1ccc(C#N)cc1)N(C)CC2 (configuration not stated) | 99.8 | 3.6 | –
COc1cc2c(cc1OC)C(CC(F)(F)F)N(C)CC2 (configuration not stated) | 88.2 | 3 | –
COc1cc(Br)c(CC2c3cc(OC)c(OC)cc3CCN2C)cc1OC (configuration not stated) | 93.4 | 16 | –
COc1cc2c(cc1OC)C(Cc1ccc([N+](=O)[O-])cc1)N(C)CC2 (configuration not stated) | 87.1 | 2.3 | –
COc1ccc(CCN(C)CCCC(C#N)(c2ccc(OC)c(OC)c2)C(C)C)cc1OC (configuration not stated) [VERAPAMIL] | 95.6 | 10.1 | Activity (ECa-109 cell line [5]): 7.92%; Activity (ECa-109 cell line [6]): 10.5%; IC50 (ECa-109 cell line [1]): 679 nM; Activity (ECa-109 cell line [7]): 2.65%; Activity (ECa-109 cell line [8]): 0.12%; viability at 5 µM (ECa-109 cell line [9]): 68.8%; fold change (FC) (ECa-109 cell line [2]): 10.1; Activity (ECa-109 cell line [10]): 0.48%; Activity (ECa-109 cell line [11]): 20.3%; viability at 5 µM (ECa-109 cell line [12]): 89.3%
COc1ccc(C[C@@H]2c3cc(Oc4cc(C[C@@H]5c6cc(OC)c(OC)cc6CCN5C)ccc4O)c(OC)cc3CCN2C)cc1 [NEFERINE] | – | – | IC50 (ECa-109 cell line [1]): 3790 nM; fold change (FC) (ECa-109 cell line [2]): 1.8
COc1cc2c(cc1OC)C(Cc1ccccc1O)N(C)CC2 (configuration not stated) | 98.9 | 7.1 | –
COc1cc2c(cc1OC)C(Cc1ccc(I)cc1)N(C)CC2 (configuration not stated) | 99 | 2.9 | –
COc1cc2c(cc1OC)CN(CCc1ccc(NC(=O)c3cc(OC)c(OC)cc3NC(=O)c3cnc4ccccc4c3)cc1)CC2 [TARIQUIDAR] | 85.9 | 187.4 | Activity [13]: Active
CN1CCc2cc(Br)ccc2C1=O | 88.6 | 2 | –
COc1cc2c(cc1OC)C(c1ccc(O)cc1)N(C)CC2 (configuration not stated) | 87.7 | 1.8 | –
COc1ccc(CC2c3cc(OC)c(OC)cc3CCN2C)cc1OC (configuration not stated) [LAUDANOSINE] | 90.7 | 12.9 | –
COc1cc2c(cc1OC)C(Cc1ccc(OC)c(OCC3CCCCC3)c1)N(C)CC2 (configuration not stated) | 88.1 | 140.3 | –
COc1cc2c(cc1OC)C(Cc1ccc(OC)c(OCCC3CCCCC3)c1)N(C)CC2 (configuration not stated) | 81 | 143.3 | –
CC[C@]1(O)C[C@H]2CN(CCc3c([nH]c4ccccc34)[C@@](C(=O)OC)(c3cc4c(cc3OC)N(C=O)[C@H]3[C@@](O)(C(=O)OC)[C@H](OC(C)=O)[C@]5(CC)C=CCN6CC[C@]43[C@@H]65)C2)C1 [VINCRISTINE] | – | – | Activity [14]: Non-Toxic
COc1cc2c(cc1OC)C(=O)N(C)CC2 | 98.4 | 3.2 | –
COc1cc2c(cc1OC)C(Cc1ccc(OC)c(OCc3ccccc3)c1)N(Cc1ccccc1)CC2 (configuration not stated) | 68.8 | 42.7 | –
COc1ccc2cc1Oc1ccc(cc1)C[C@H]1c3cc(c(OC)cc3CCN1C)Oc1c(OC)c(OC)cc3c1[C@H](C2)N(C)CC3 [FANCHININ] | 87.1 | 232.6 | Activity (ECa-109 cell line [5]): 8.01%; solubility thermodynamic [15]: 14.6 µg/mL (≈ 23.4 µM); Activity (ECa-109 cell line [6]): 13.1%; IC50 (ECa-109 cell line [1]): 29.4 nM; Activity (ECa-109 cell line [7]): 3.68%; Activity (ECa-109 cell line [8]): 0.15%; viability at 5 µM (ECa-109 cell line [9]): 67.5%; fold change (FC) (ECa-109 cell line [2]): 232.6; Activity (ECa-109 cell line [10]): 0.54%; Activity (ECa-109 cell line [11]): 18.8%; viability at 5 µM (ECa-109 cell line [12]): 88.2%
COc1cc2c(cc1OC)CN(C)CC2 | 90.9 | 7.7 | –
COc1cc2c(cc1OC)C(Cc1cccc(Cl)c1)N(C)CC2 (configuration not stated) | 89 | 23.6 | –
